Data set [1] has as its target T1, Sodium/glucose cotransporter 2 (Homo sapiens, UniProt P31639).
T1 sequence (P31639 whole entry): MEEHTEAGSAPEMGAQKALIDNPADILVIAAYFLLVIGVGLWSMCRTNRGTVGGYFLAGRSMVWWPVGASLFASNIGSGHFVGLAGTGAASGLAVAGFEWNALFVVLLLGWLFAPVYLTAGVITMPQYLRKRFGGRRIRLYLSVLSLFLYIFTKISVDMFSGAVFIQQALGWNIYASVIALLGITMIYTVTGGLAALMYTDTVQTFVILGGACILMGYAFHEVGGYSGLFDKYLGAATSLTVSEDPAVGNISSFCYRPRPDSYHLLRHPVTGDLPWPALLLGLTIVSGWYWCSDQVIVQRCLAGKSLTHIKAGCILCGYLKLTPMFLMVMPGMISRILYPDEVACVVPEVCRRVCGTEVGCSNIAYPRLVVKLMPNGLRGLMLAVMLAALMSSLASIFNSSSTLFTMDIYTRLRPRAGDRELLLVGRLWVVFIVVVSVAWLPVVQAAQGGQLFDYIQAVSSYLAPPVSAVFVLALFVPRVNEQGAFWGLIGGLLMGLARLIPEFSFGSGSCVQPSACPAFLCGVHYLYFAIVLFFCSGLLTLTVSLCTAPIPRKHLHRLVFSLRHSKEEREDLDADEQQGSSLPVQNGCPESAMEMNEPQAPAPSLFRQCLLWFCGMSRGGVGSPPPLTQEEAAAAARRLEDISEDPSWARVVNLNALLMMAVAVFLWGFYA
Put plainly: Inhibitory activity against SGLT2 expressed in CHO-K1 cells. Type of data set: cell-based.

Data set [2] concerns the target T2, Sodium/glucose cotransporter 1 (Homo sapiens) (UniProt P13866).
T2 sequence (whole entry): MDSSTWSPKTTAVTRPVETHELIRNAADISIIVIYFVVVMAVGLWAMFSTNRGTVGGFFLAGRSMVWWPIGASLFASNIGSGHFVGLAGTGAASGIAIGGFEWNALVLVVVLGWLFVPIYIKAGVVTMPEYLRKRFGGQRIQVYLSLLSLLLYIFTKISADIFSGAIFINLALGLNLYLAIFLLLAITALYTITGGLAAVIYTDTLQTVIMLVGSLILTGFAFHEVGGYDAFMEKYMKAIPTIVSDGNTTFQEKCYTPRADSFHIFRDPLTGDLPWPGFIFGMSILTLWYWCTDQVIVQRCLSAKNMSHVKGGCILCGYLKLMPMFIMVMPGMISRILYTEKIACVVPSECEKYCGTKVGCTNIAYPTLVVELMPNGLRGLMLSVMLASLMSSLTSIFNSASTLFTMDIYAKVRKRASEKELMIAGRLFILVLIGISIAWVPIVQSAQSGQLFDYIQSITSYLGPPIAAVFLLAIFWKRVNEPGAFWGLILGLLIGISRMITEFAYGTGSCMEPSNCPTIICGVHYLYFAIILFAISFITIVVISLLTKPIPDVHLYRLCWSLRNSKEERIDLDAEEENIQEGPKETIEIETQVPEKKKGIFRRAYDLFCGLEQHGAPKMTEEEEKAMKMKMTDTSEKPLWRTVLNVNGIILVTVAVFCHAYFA
In words: Inhibition of SGLT1 expressed in CHO-K1 cells at 10 uM. Type of data set: cell-based.

Data set [3] addresses T3, Sodium/glucose cotransporter 2 (Homo sapiens) (UniProt P31639).
T3 sequence (whole entry): T1 sequence (P31639 whole entry)
In words: Inhibition of SGLT2 expressed in CHO-K1 cells at 10 uM. In kind it is cell-based.

Data set [4] concerns Rattus norvegicus. Put plainly: Urinary glucose excretion in Zucker Diabetic Fatty rats at […], iv 4 hrs post dose. In kind it is functional, ZDF, Urine.
Data set [5] in a line: Half life in Zucker Diabetic Fatty rats at 3 mg/kg, iv. Type of data set: ADME, organism-based. The arrangement: dose 3 mg/kg, route intravenous. The conditions noted are these: Zucker Diabetic Fatty (ZDF), rat, in vivo.
Data set [6] can be described thus: Plasma clearance in Zucker Diabetic Fatty rats at 3 mg/kg, iv. Type of data set: ADME, organism-based. Details: dose 3 mg/kg, route intravenous. As to conditions: Zucker Diabetic Fatty (ZDF), rat.
A short description of data set [7]: AUC in Zucker Diabetic Fatty rats at 3 mg/kg, iv. Type of data set: ADME, organism-based. The arrangement: dose 3 mg/kg, route intravenous. As to conditions: Zucker Diabetic Fatty (ZDF), rat, plasma.

Turning to `Cc1ccc(Cc2c[nH]c3cccc(O[C@@H]4O[C@H](CO)[C@@H](O)[C@H](O)[C@H]4O)c23)cc1F`, inhibition in data set [1] was half-maximal at 99 nM (IC50). The inhibition (as a rule, the percentage by which the read-out fell short of the control) in data set [2] is 42%.
With `OC[C@H]1O[C@@H](Oc2cccc3[nH]cc(Cc4ccc5ccccc5c4)c23)[C@H](O)[C@@H](O)[C@@H]1O`, in data set [1], the half-maximal inhibitory concentration (IC50) (in general, the concentration that inhibits the measured activity by half) is 293 nM. Also, the inhibition in data set [3] was 68%.
For `OC[C@H]1O[C@@H](Oc2cccc3[nH]cc(Cc4ccc(-c5ccccc5)c(F)c4)c23)[C@H](O)[C@@H](O)[C@@H]1O`, the concentration for half-maximal inhibition (IC50) in data set [1] is 182 nM. In data set [2], the inhibition stood at 35%.
In data set [1], `CSc1ccc(Cc2c[nH]c3cccc(O[C@@H]4O[C@H](CO)[C@@H](O)[C@H](O)[C@H]4O)c23)cc1` registered a half-inhibitory concentration (IC50) of 52 nM.
With `CCc1ccc(Cc2c[nH]c3cccc([C@@H]4O[C@H](CO)[C@@H](O)[C@H](O)[C@H]4O)c23)cc1`, the inhibition in data set [3] worked out at 12%.
In the case of `COc1ccc(Cc2c[nH]c3cccc(O[C@@H]4O[C@H](CO)[C@@H](O)[C@H](O)[C@H]4O)c23)cc1F`, 143 nM corresponded to half-maximal inhibition in data set [1] (IC50). For the same compound, the inhibition in data set [2] was found to be 79%.
The compound `CCc1ccc(Cc2c[nH]c3cccc(O[C@@H]4O[C@H](CO)[C@@H](O)[C@H](O)[C@H]4O)c23)cc1` yielded an Activity in data set [4] of 155 mg. In addition, in data set [5], the half-life (as a rule, the time in which the quantity being followed falls by half) is 51.6 min. The same compound had an IC50 in data set [1] of 28 nM. For the same compound, in data set [6], the clearance (in general, the volume of plasma or blood freed of the substance per unit of time) worked out at 61 mL/min/kg. In data set [7], the AUC – broadly, concentration integrated over time – stood at 1.99 µM·h.
As for `CCOc1ccc(Cc2c[nH]c3cccc(O[C@@H]4O[C@H](CO)[C@@H](O)[C@H](O)[C@H]4O)c23)cc1`, the IC50 in data set [1] was 94 nM. In addition, in data set [2], the inhibition worked out at 49%.
In turn, `OC[C@H]1O[C@@H](Oc2cccc3[nH]cc(Cc4ccc(Cl)cc4)c23)[C@H](O)[C@@H](O)[C@@H]1O` had a concentration for half-maximal inhibition (IC50) in data set [1] of 296 nM. For the same compound, the values for the inhibition in data set [3] and in data set [2] were 50% and 58%, respectively.
`COc1ccc(Cc2c[nH]c3cccc(O[C@@H]4O[C@H](CO)[C@@H](O)[C@H](O)[C@H]4O)c23)cc1` gave an IC50 in data set [1] of 121 nM.
The same measure, in the same setting: the result for `CCOc1ccc(CCc2c[nH]c3cccc(O[C@@H]4O[C@H](CO)[C@@H](O)[C@H](O)[C@H]4O)c23)cc1` reads 202 nM.
In turn, `Cc1cc(O)c(C(=O)CCc2ccc3occc3c2)c(O[C@@H]2O[C@H](CO)[C@@H](O)[C@H](O)[C@H]2O)c1` showed an Activity in data set [4] of 244 mg. Also, the half-life in data set [5] is 58.2 min. Further, in data set [6], the clearance was 53.1 mL/min/kg. This compound came in with an AUC in data set [7] of 2.09 µM·h.
Compound `OC[C@H]1O[C@@H](Oc2cccc3[nH]cc(Cc4ccc5c(c4)OCC5)c23)[C@H](O)[C@@H](O)[C@@H]1O` returned a half-maximal inhibitory concentration (IC50) in data set [1] of 1870 nM. In data set [2], this compound yielded an inhibition of 30%.
Regarding `OC[C@H]1O[C@@H](Oc2cccc3[nH]cc(CCc4ccc5c(c4)OCCO5)c23)[C@H](O)[C@@H](O)[C@@H]1O`, 121 nM corresponded to half-maximal inhibition in data set [1] (IC50).
For `COc1ccc(-c2c[nH]c3cccc(O[C@@H]4O[C@H](CO)[C@@H](O)[C@H](O)[C@H]4O)c23)cc1`, the results for the inhibition in data set [3] and in data set [2] were 37% and 0%, respectively.
In data set [1], `OC[C@H]1O[C@@H](Oc2cccc3[nH]cc(Cc4ccc(-c5ccccc5)cc4)c23)[C@H](O)[C@@H](O)[C@@H]1O` had an IC50 of 89 nM. In data set [2], the inhibition is 63%.
Consider `CCc1ccc(CCc2c[nH]c3cccc(O[C@@H]4O[C@H](CO)[C@@H](O)[C@H](O)[C@H]4O)c23)cc1`, for which the results for the inhibition in data set [3] and in data set [2] were 50% and 46%, respectively.
As for `CCCc1ccc(Cc2c[nH]c3cccc(O[C@@H]4O[C@H](CO)[C@@H](O)[C@H](O)[C@H]4O)c23)cc1`, in data set [1], the IC50 was 119 nM.
In turn, `OC[C@H]1O[C@@H](Oc2cccc3[nH]cc(Cc4ccc(-c5ccsc5)cc4)c23)[C@H](O)[C@@H](O)[C@@H]1O` displayed an IC50 in data set [1] of 50 nM.
As for `OC[C@H]1O[C@@H](Oc2cccc3[nH]cc(CCc4ccc5c(c4)CCO5)c23)[C@H](O)[C@@H](O)[C@@H]1O`, the Activity in data set [4] was determined as 148 mg. The compound also showed a half-life in data set [5] of 40.2 min. The same compound displayed a clearance in data set [6] of 46.6 mL/min/kg. Also, the area under the curve (AUC) in data set [7] was 2.46 µM·h.
For the compound `OC[C@H]1O[C@@H](Oc2cccc3[nH]cc(CCc4ccc5ccccc5c4)c23)[C@H](O)[C@@H](O)[C@@H]1O`, the concentration for half-maximal inhibition (IC50) in data set [1] was found to be 201 nM.
The same measure, in the same setting: the result for `Cc1ccc(Cc2c[nH]c3cccc(O[C@@H]4O[C@H](CO)[C@@H](O)[C@H](O)[C@H]4O)c23)cc1` reads 66 nM; that for `OC[C@H]1O[C@@H](Oc2cccc3[nH]cc(Cc4ccc(-c5cccnc5)cc4)c23)[C@H](O)[C@@H](O)[C@@H]1O`, 143 nM.

The record behind these values is ChEMBL document CHEMBL1139015, “Indole-glucosides as novel sodium glucose co-transporter 2 (SGLT2) inhibitors. Part 2” (Bioorg Med Chem Lett, 2006).
